In PubChem BioAssay AID2060600 (Molecular Pharmacology Branch, DTP, NCI, 2025):

Test system: 996289-038-R-J1-PDC complex spheroid viability
Assay: Anticancer human tumor 996289-038-R-J1-PDC patient-derived colon adenocarcinoma cell line growth inhibition [CLK]
Details: for IC50: curve of first compound; for viability, T/C: stronger effect = lower value
Procedure, shortened: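 Patient-derived tumor cells grown as complex spheroids with HUVEC endothelial cells and mesenchymal stem cells, treated with drug combinations. Concentrations descend in half-log steps from near clinical Cmax, or from 10 microM if Cmax unknown.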

[1] = second compound 0.0316 µM, first compound 0.0316 µM
[2] = second compound 0.0316 µM, first compound 0.1 µM
[3] = second compound 0.1 µM, first compound 0.0316 µM
[4] = second compound 0.1 µM, first compound 0.1 µM
[5] = second compound 0.316 µM, first compound 0.0316 µM
[6] = second compound 0.316 µM, first compound 0.1 µM
[7] = second compound 1 µM, first compound 0.0316 µM
[8] = second compound 1 µM, first compound 0.1 µM
[9] = second compound 3.16 µM, first compound 0.0316 µM
[10] = second compound 3.16 µM, first compound 0.1 µM
[11] = second compound 10 µM, first compound 0.0316 µM
[12] = second compound 10 µM, first compound 0.1 µM
[13] = second compound 0.0316 µM, first compound 0.316 µM
[14] = second compound 0.0316 µM, first compound 1 µM
[15] = second compound 0.0316 µM, first compound 3.16 µM
[16] = second compound 0.0316 µM, first compound 10 µM
[17] = second compound 0.1 µM, first compound 0.316 µM
[18] = second compound 0.1 µM, first compound 1 µM
[19] = second compound 0.1 µM, first compound 3.16 µM
[20] = second compound 0.1 µM, first compound 10 µM
[21] = second compound 0.316 µM, first compound 0.316 µM
[22] = second compound 0.316 µM, first compound 1 µM
[23] = second compound 0.316 µM, first compound 3.16 µM
[24] = second compound 0.316 µM, first compound 10 µM
[25] = second compound 1 µM, first compound 0.316 µM
[26] = second compound 1 µM, first compound 1 µM
[27] = second compound 1 µM, first compound 3.16 µM
[28] = second compound 1 µM, first compound 10 µM
[29] = second compound 3.16 µM, first compound 0.316 µM
[30] = second compound 3.16 µM, first compound 1 µM
[31] = second compound 3.16 µM, first compound 3.16 µM
[32] = second compound 3.16 µM, first compound 10 µM
[33] = second compound 10 µM, first compound 0.316 µM
[34] = second compound 10 µM, first compound 1 µM
[35] = second compound 10 µM, first compound 3.16 µM
[36] = second compound 10 µM, first compound 10 µM
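Note: spheroids exposed to the agents for 7 days before readout.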

CC(C)CC(NC(=O)C(Cc1ccccc1)NC(=O)c1cnccn1)B(O)O (stereo not drawn) + CN1CCN(c2cc(C(=O)Nc3cc4cc(-c5cnn(C)c5)ccc4cn3)ccn2)CC1
IC50 (second compound 0.0316 µM): 4.69 nM | IC50 (second compound 0.1 µM): 3.9 nM | IC50 (second compound 0.316 µM): 2.03 nM | IC50 (second compound 1 µM): < 0.949 nM | IC50 (second compound 3.16 µM): < 0.949 nM | IC50 (second compound 10 µM): < 0.949 nM | viability, T/C (second compound 0.0316 µM, first compound 0.000949 µM): 119% | viability, T/C (second compound 0.0316 µM, first compound 0.003 µM): 77.7% | viability, T/C (second compound 0.0316 µM, first compound 0.00949 µM): 6.22% | viability, T/C (second compound 0.0316 µM, first compound 0.03 µM): 4.45% | viability, T/C (second compound 0.0316 µM, first compound 0.0949 µM): 2.91% | viability, T/C (second compound 0.0316 µM, first compound 0.3 µM): 0.26% | viability, T/C (second compound 0.1 µM, first compound 0.000949 µM): 97.5% | viability, T/C (second compound 0.1 µM, first compound 0.003 µM): 62.8% | viability, T/C (second compound 0.1 µM, first compound 0.00949 µM): 6.36% | viability, T/C (second compound 0.1 µM, first compound 0.03 µM): 0.64% | viability, T/C (second compound 0.1 µM, first compound 0.0949 µM): 0.55% | viability, T/C (second compound 0.1 µM, first compound 0.3 µM): 0.33% | viability, T/C (second compound 0.316 µM, first compound 0.000949 µM): 70.5% | viability, T/C (second compound 0.316 µM, first compound 0.003 µM): 39.5% | viability, T/C (second compound 0.316 µM, first compound 0.00949 µM): 2.17% | viability, T/C (second compound 0.316 µM, first compound 0.03 µM): 2.47% | viability, T/C (second compound 0.316 µM, first compound 0.0949 µM): 0.77% | viability, T/C (second compound 0.316 µM, first compound 0.3 µM): 1.41% | viability, T/C (second compound 1 µM, first compound 0.000949 µM): 2.7% | viability, T/C (second compound 1 µM, first compound 0.003 µM): 0.91% | viability, T/C (second compound 1 µM, first compound 0.00949 µM): 1.02% | viability, T/C (second compound 1 µM, first compound 0.03 µM): 0.56% | viability, T/C (second compound 1 µM, first compound 0.0949 µM): 0.24% | viability, T/C (second compound 1 µM, first compound 0.3 µM): 0.28% | viability, T/C (second compound 3.16 µM, first compound 0.000949 µM): 0.51% | viability, T/C (second compound 3.16 µM, first compound 0.003 µM): 0.34% | viability, T/C (second compound 3.16 µM, first compound 0.00949 µM): 0.26% | viability, T/C (second compound 3.16 µM, first compound 0.03 µM): 0.67% | viability, T/C (second compound 3.16 µM, first compound 0.0949 µM): 0.47% | viability, T/C (second compound 3.16 µM, first compound 0.3 µM): 0.21% | viability, T/C (second compound 10 µM, first compound 0.000949 µM): 0.41% | viability, T/C (second compound 10 µM, first compound 0.003 µM): 1.36% | viability, T/C (second compound 10 µM, first compound 0.00949 µM): 1.47% | viability, T/C (second compound 10 µM, first compound 0.03 µM): 1.13% | viability, T/C (second compound 10 µM, first compound 0.0949 µM): 0.38% | viability, T/C (second compound 10 µM, first compound 0.3 µM): 0.22%

Cn1ncnc1[C@H]1c2n[nH]c(=O)c3cc(F)cc(c23)N[C@@H]1c1ccc(F)cc1 + CN1CCN(c2cc(C(=O)Nc3cc4cc(-c5cnn(C)c5)ccc4cn3)ccn2)CC1
IC50 (second compound 0.0316 µM): > 100 nM | IC50 (second compound 0.1 µM): > 100 nM | IC50 (second compound 0.316 µM): > 100 nM | IC50 (second compound 1 µM): < 0.316 nM | IC50 (second compound 3.16 µM): < 0.316 nM | IC50 (second compound 10 µM): < 0.316 nM | viability, T/C (second compound 0.0316 µM, first compound 0.000316 µM): 104% | viability, T/C (second compound 0.0316 µM, first compound 0.001 µM): 102% | viability, T/C (second compound 0.0316 µM, first compound 0.00316 µM): 102% | viability, T/C (second compound 0.0316 µM, first compound 0.01 µM): 107% | viability, T/C [1]: 101% | viability, T/C [2]: 80.4% | viability, T/C (second compound 0.1 µM, first compound 0.000316 µM): 88.8% | viability, T/C (second compound 0.1 µM, first compound 0.001 µM): 96.9% | viability, T/C (second compound 0.1 µM, first compound 0.00316 µM): 87.6% | viability, T/C (second compound 0.1 µM, first compound 0.01 µM): 97% | viability, T/C [3]: 95.5% | viability, T/C [4]: 86.8% | viability, T/C (second compound 0.316 µM, first compound 0.000316 µM): 72.3% | viability, T/C (second compound 0.316 µM, first compound 0.001 µM): 70.2% | viability, T/C (second compound 0.316 µM, first compound 0.00316 µM): 74.6% | viability, T/C (second compound 0.316 µM, first compound 0.01 µM): 71.6% | viability, T/C [5]: 67.9% | viability, T/C [6]: 53% | viability, T/C (second compound 1 µM, first compound 0.000316 µM): 5.01% | viability, T/C (second compound 1 µM, first compound 0.001 µM): 4.06% | viability, T/C (second compound 1 µM, first compound 0.00316 µM): 4.98% | viability, T/C (second compound 1 µM, first compound 0.01 µM): 6.96% | viability, T/C [7]: 6.27% | viability, T/C [8]: 4.4% | viability, T/C (second compound 3.16 µM, first compound 0.000316 µM): 0.64% | viability, T/C (second compound 3.16 µM, first compound 0.001 µM): 0.72% | viability, T/C (second compound 3.16 µM, first compound 0.00316 µM): 1.05% | viability, T/C (second compound 3.16 µM, first compound 0.01 µM): 0.84% | viability, T/C [9]: 0.71% | viability, T/C [10]: 1.35% | viability, T/C (second compound 10 µM, first compound 0.000316 µM): 0.97% | viability, T/C (second compound 10 µM, first compound 0.001 µM): 0.51% | viability, T/C (second compound 10 µM, first compound 0.00316 µM): 1.37% | viability, T/C (second compound 10 µM, first compound 0.01 µM): 2.6% | viability, T/C [11]: 0.38% | viability, T/C [12]: 0.92%

Nc1ccn(C2OC(CO)C(O)C2(F)F)c(=O)n1 (stereo not drawn) + CN1CCN(c2cc(C(=O)Nc3cc4cc(-c5cnn(C)c5)ccc4cn3)ccn2)CC1
IC50 (second compound 0.0316 µM): 851 nM | IC50 (second compound 0.1 µM): 406 nM | IC50 (second compound 0.316 µM): 130 nM | IC50 (second compound 1 µM): < 31.6 nM | IC50 (second compound 3.16 µM): < 31.6 nM | IC50 (second compound 10 µM): < 31.6 nM | viability, T/C [1]: 86.7% | viability, T/C [2]: 62.6% | viability, T/C [13]: 54.5% | viability, T/C [14]: 51.5% | viability, T/C [15]: 49.1% | viability, T/C [16]: 43.4% | viability, T/C [3]: 74.6% | viability, T/C [4]: 56.4% | viability, T/C [17]: 53.2% | viability, T/C [18]: 46.9% | viability, T/C [19]: 41.2% | viability, T/C [20]: 35.8% | viability, T/C [5]: 57.7% | viability, T/C [6]: 52% | viability, T/C [21]: 43.3% | viability, T/C [22]: 39.2% | viability, T/C [23]: 36.2% | viability, T/C [24]: 26% | viability, T/C [7]: 4.69% | viability, T/C [8]: 4.7% | viability, T/C [25]: 3.37% | viability, T/C [26]: 6.26% | viability, T/C [27]: 3.39% | viability, T/C [28]: 3.71% | viability, T/C [9]: 1.41% | viability, T/C [10]: 1.07% | viability, T/C [29]: 1.65% | viability, T/C [30]: 1% | viability, T/C [31]: 1.01% | viability, T/C [32]: 2.06% | viability, T/C [11]: 0.95% | viability, T/C [12]: 1.01% | viability, T/C [33]: 0.41% | viability, T/C [34]: 1.58% | viability, T/C [35]: 0.37% | viability, T/C [36]: 0.35%

O=C(c1cc(Cc2n[nH]c(=O)c3ccccc23)ccc1F)N1CCN(C(=O)C2CC2)CC1 + CN1CCN(c2cc(C(=O)Nc3cc4cc(-c5cnn(C)c5)ccc4cn3)ccn2)CC1
IC50 (second compound 0.0316 µM): > 10000 nM | IC50 (second compound 0.1 µM): > 10000 nM | IC50 (second compound 0.316 µM): > 10000 nM | IC50 (second compound 1 µM): < 31.6 nM | IC50 (second compound 3.16 µM): < 31.6 nM | IC50 (second compound 10 µM): < 31.6 nM | viability, T/C [1]: 92.9% | viability, T/C [2]: 109% | viability, T/C [13]: 91.9% | viability, T/C [14]: 110% | viability, T/C [15]: 104% | viability, T/C [16]: 100% | viability, T/C [3]: 84.9% | viability, T/C [4]: 97.3% | viability, T/C [17]: 84.6% | viability, T/C [18]: 89.2% | viability, T/C [19]: 92.7% | viability, T/C [20]: 87.8% | viability, T/C [5]: 57.9% | viability, T/C [6]: 65.9% | viability, T/C [21]: 73.4% | viability, T/C [22]: 58.4% | viability, T/C [23]: 67.9% | viability, T/C [24]: 60.4% | viability, T/C [7]: 3.61% | viability, T/C [8]: 4.51% | viability, T/C [25]: 5.54% | viability, T/C [26]: 3.94% | viability, T/C [27]: 3.05% | viability, T/C [28]: 5.36% | viability, T/C [9]: 1.23% | viability, T/C [10]: 1.19% | viability, T/C [29]: 2.64% | viability, T/C [30]: 1% | viability, T/C [31]: 0.92% | viability, T/C [32]: 1.35% | viability, T/C [11]: 0.69% | viability, T/C [12]: 1.28% | viability, T/C [33]: 0.88% | viability, T/C [34]: 2.07% | viability, T/C [35]: 0.54% | viability, T/C [36]: 2.19%
